Measurements published in US11116735B2, “Use of substituted benzylideneguanidine derivatives as synergists for polymyxin antibiotics” (GUANGZHOU INSIGHTER BIOTECHNOLOGY CO., LTD., priority 2015, dated 2021).
Values joined by “and” are separate entries in the source; they are usually repeats but may differ in a detail not shown here. Identical values can stand only once.

How the values were obtained:
[1] = tested on: E. coli 3B-24; assay: MIC by doubling dilution, colistin sulfate-susceptible E. coli 3B-24; type: cell-based, Escherichia coli
[2] = tested on: weanling piglets; assay: Synergy of compound 3 and colistin sulfate in the feed for weanling piglets; type: in vivo, Duroc×Landrace×Large crossbred lean weanling piglets; conditions: for Average daily weight gain / Diarrhea rate / Feed conversion ratio: weanling piglets, ten days
Method: 120 28-day-aged Duroc×Landrace×Large crossbred lean weanling piglets similar in weight were divided into 12 groups, 10 piglets in each group. For each group, colistin sulfate and/or compound 3 were added into the antibiotic-free creep feed. The piglets were given ad libitum access to feed and water during the experiment. Weight gain, feed efficiency and diarrhea rate of each group within ten days were recorded.

[3] = tested on: Salmonella sp. 3087; assay: MIC, resistance reversal by various concentrations of compound 3, Salmonella sp. 3087
Method: (§1) The compound 3 in this embodiment was in the form of a hydrochloride, i.e., the experiments were carried out with a hydrochloride of compound 3.
(§2) In vitro minimum inhibitory concentrations of colistin sulfate against the strains where the cultures respectively comprised various concentrations of compound 3 were also measured.

[4] = tested on: E. coli 5F-1; assay: MIC, resistance reversal by various concentrations of compound 3, E. coli 5F-1
Method: as §1, §2

[5] = tested on: P. aeruginosa E543; assay: MIC, resistance reversal by various concentrations of compound 3, P. aeruginosa E543
Method: as §1, §2

[6] = tested on: E. coli 5W-7; assay: MIC by doubling dilution, colistin sulfate-susceptible E. coli 5W-7; type: cell-based, Escherichia coli
[7] = tested on: Shigella sp. 2D89; assay: MIC, resistance reversal by various concentrations of compound 3, Shigella sp. 2D89
Method: as §1, §2

[8] = tested on: weanling piglets; assay: Compound 3 in various dosages and colistin sulfate in the feed for weanling piglets; type: in vivo, Duroc×Landrace×Large crossbred lean weanling piglets; conditions: for Average daily weight gain / Diarrhea rate / Feed conversion ratio: ten days
Method: 90 28-day-aged Duroc×Landrace×Large crossbred lean weanling piglets similar in weight were divided into 9 groups, 10 piglets in each group. For each group, colistin sulfate and/or various dosages of compound 3 were added into the antibiotic-free creep feed. The piglets were given ad libitum access to feed and water during the experiment. Weight gain, feed efficiency and diarrhea rate of each group within ten days were recorded.

[9] = tested on: various colistin sulfate-resistant Gram-negative bacteria; assay: MIC by doubling dilution, summary over resistant species; conditions: compound 3 alone (hydrochloride)
Method: as §1, §2

[10] = tested on: cherry valley ducks; assay: Combined application of compound 3 and colistin sulfate in duck feed; type: in vivo; conditions: 21-day experiment
Method: 800 1-day-aged cherry valley ducks were divided into 4 groups according to Table 10, 4 parallels in each group and 50 ducks in each parallel. For each group, colistin sulfate and/or compound 3 were added into the feed. The ducks were kept in cages and given ad libitum access to feed and water during a 21-day experiment. Synergy of compound 3 and colistin sulfate on the ducks in the weight gain and feed efficiency was observed from the result (see Table 11).

[11] = tested on: weanling piglets; assay: Synergy of derivatives and colistin sulfate in the feed for weanling piglets; type: in vivo, Duroc×Landrace×Large crossbred lean weanling piglets; conditions: creep feed with 20 ppm colistin sulfate and 150 ppm derivative (hydrochloride), ten days
[12] = tested on: Klebsiella sp. 4125; assay: MIC, resistance reversal by various concentrations of compound 3, Klebsiella sp. 4125
Method: as §1, §2

[13] = tested on: fast-growing yellow feather broilers; assay: Combined application of compound 3 and colistin sulfate in chicken feed; type: in vivo; conditions: 28-day experiment; for Average daily weight gain / Feed conversion ratio / Survival rate: broilers
Method: 800 1-day-aged fast-growing yellow feather broilers were divided into 4 groups, 4 parallels in each group and 50 broilers in each parallel. For each group, colistin sulfate and/or compound 3 were added into the feed. The chicken were kept in cages and given ad libitum access to feed and water during a 28-day experiment. Synergy of compound 3 and colistin sulfate on the chicken in the weight gain and feed efficiency was observed from the result (see Table 10).

[14] = 20 ppm colistin sulfate and 150 ppm compound 3 in creep feed (Test, groups 10-12)
[15] = 150 ppm in creep feed, no colistin sulfate (Control 2, groups 7-9)
[16] = colistin sulfate with 0 ppm compound 3, or compound 3 (hydrochloride) in the absence of colistin sulfate
[17] = 20 ppm colistin sulfate + 10 ppm compound 3 in creep feed (Test 1)
[18] = 20 ppm colistin sulfate + 25 ppm compound 3 in creep feed (Test 2)
[19] = 20 ppm colistin sulfate + 50 ppm compound 3 in creep feed (Test 3)
[20] = 20 ppm colistin sulfate + 100 ppm compound 3 in creep feed (Test 4)
[21] = 20 ppm colistin sulfate + 200 ppm compound 3 in creep feed (Test 5)
[22] = 20 ppm colistin sulfate + 500 ppm compound 3 in creep feed (Test 6)
[23] = only 200 ppm compound 3 in creep feed, no colistin sulfate
[24] = 20 ppm colistin sulfate and 50 ppm compound 3 in feed (Test)

Compound: CC(C)Oc1ccc(C=NN=C(N)NN=Cc2ccc(OC(C)C)cc2)cc1 [Compound 3]
- In vitro minimum inhibitory concentration (MIC) of the substance alone ([1]; E. coli 3B-24, colistin sulfate-susceptible, substance alone, derivatives as hydrochlorides): >800 ppm
- In vitro MIC of colistin sulfate in the presence of the substituted benzylideneguanidine derivative ([1]; E. coli 3B-24, culture comprised 20.0 ppm of the derivative (hydrochloride), colistin sulfate serially diluted): 0.50 ppm
- Reduction of the diarrhea rate ([2]; groups 10, 11 and 12: colistin sulfate added together with compound 3): 20%
- Average daily weight gain [2, 14]: 254 g and 248 g and 251 g
- Diarrhea rate [2, 14]: 12% and 9% and 10%
- Feed conversion ratio [2, 14]: 1.435 and 1.427 and 1.453
- Average daily weight gain [2, 15]: 200 g and 205 g and 211 g
- Diarrhea rate [2, 15]: 36% and 38% and 34%
- Feed conversion ratio [2, 15]: 1.666 and 1.639 and 1.647
- In vitro MIC of colistin sulfate in the presence of compound 3 ([3]; 5 ppm compound 3): 64.00 ppm
- In vitro MIC of colistin sulfate in the presence of compound 3 ([3]; 10 ppm compound 3): 16.00 ppm
- In vitro MIC of colistin sulfate in the presence of compound 3 ([3]; 20 ppm compound 3): 4.00 ppm
- In vitro MIC of colistin sulfate in the presence of compound 3 ([3]; 40 ppm compound 3): 2.00 ppm
- In vitro MIC of colistin sulfate in the presence of compound 3 ([3]; 80 ppm compound 3): 1.00 ppm
- In vitro MIC of the substance alone [3, 16]: >800 ppm
- In vitro MIC of colistin sulfate in the presence of compound 3 ([4]; 5 ppm compound 3): 32.00 ppm
- In vitro MIC of colistin sulfate in the presence of compound 3 ([4]; 10 ppm compound 3): 8.00 ppm
- In vitro MIC of colistin sulfate in the presence of compound 3 ([4]; 20 ppm compound 3): 1.00 ppm
- In vitro MIC of colistin sulfate in the presence of compound 3 ([4]; 40 ppm compound 3): 1.00 ppm
- In vitro MIC of colistin sulfate in the presence of compound 3 ([4]; 80 ppm compound 3): 0.50 ppm
- In vitro MIC of the substance alone [4, 16]: >800 ppm
- In vitro MIC of colistin sulfate in the presence of compound 3 ([5]; 5 ppm compound 3): 32.00 ppm
- In vitro MIC of colistin sulfate in the presence of compound 3 ([5]; 10 ppm compound 3): 8.00 ppm
- In vitro MIC of colistin sulfate in the presence of compound 3 ([5]; 20 ppm compound 3): 2.00 ppm
- In vitro MIC of colistin sulfate in the presence of compound 3 ([5]; 40 ppm compound 3): 0.50 ppm
- In vitro MIC of colistin sulfate in the presence of compound 3 ([5]; 80 ppm compound 3): 0.50 ppm
- In vitro MIC of the substance alone [5, 16]: >800 ppm
- In vitro minimum inhibitory concentration (MIC) of the substance alone ([6]; E. coli 5W-7, colistin sulfate-susceptible, substance alone, derivatives as hydrochlorides): >800 ppm
- In vitro MIC of colistin sulfate in the presence of the substituted benzylideneguanidine derivative ([6]; E. coli 5W-7, culture comprised 20.0 ppm of the derivative (hydrochloride), colistin sulfate serially diluted): 0.25 ppm
- In vitro MIC of colistin sulfate in the presence of compound 3 ([7]; 5 ppm compound 3): 16.00 ppm
- In vitro MIC of colistin sulfate in the presence of compound 3 ([7]; 10 ppm compound 3): 2.00 ppm
- In vitro MIC of colistin sulfate in the presence of compound 3 ([7]; 20 ppm compound 3): 1.00 ppm
- In vitro MIC of colistin sulfate in the presence of compound 3 ([7]; 40 ppm compound 3): 0.25 ppm
- In vitro MIC of colistin sulfate in the presence of compound 3 ([7]; 80 ppm compound 3): 0.25 ppm
- In vitro MIC of the substance alone [7, 16]: >800 ppm
- Average daily weight gain [8, 17]: 215 g
- Diarrhea rate [8, 17]: 30%
- Feed conversion ratio [8, 17]: 1.632
- Average daily weight gain [8, 18]: 226 g
- Diarrhea rate [8, 18]: 26%
- Feed conversion ratio [8, 18]: 1.578
- Average daily weight gain [8, 19]: 237 g
- Diarrhea rate [8, 19]: 20%
- Feed conversion ratio [8, 19]: 1.532
- Average daily weight gain [8, 20]: 248 g
- Diarrhea rate [8, 20]: 16%
- Feed conversion ratio [8, 20]: 1.499
- Average daily weight gain [8, 21]: 255 g
- Diarrhea rate [8, 21]: 6%
- Feed conversion ratio [8, 21]: 1.417
- Average daily weight gain [8, 22]: 259 g
- Diarrhea rate [8, 22]: 3%
- Feed conversion ratio [8, 22]: 1.428
- Dosage dependence of diarrhea rate and productivity ([8]; colistin sulfate added together with compound 3, weanling piglets): a higher dosage of compound 3 led to a better effect
- Average daily weight gain [8, 23]: 228 g
- Diarrhea rate [8, 23]: 29%
- Feed conversion ratio [8, 23]: 1.596
- Inhibitory activity on the tested strains [9]: did not exhibit inhibitory activity
- Average daily weight gain [10, 24]: 55.6 g
- Feed conversion ratio [10, 24]: 1.817
- Survival rate [10, 24]: 100%
- Synergy with colistin sulfate in weight gain and feed efficiency [10]: Synergy
- Average daily weight gain ([10]; 100 ppm compound 3 in feed): 50.5 g
- Feed conversion ratio ([10]; 100 ppm compound 3 in feed): 1.926
- Survival rate ([10]; 100 ppm compound 3 in feed): 100%
- Average daily weight gain [11]: 258 g
- Diarrhea rate [11]: 8%
- Feed conversion ratio [11]: 1.441
- In vitro MIC of colistin sulfate in the presence of compound 3 ([12]; 5 ppm compound 3): 32.00 ppm
- In vitro MIC of colistin sulfate in the presence of compound 3 ([12]; 10 ppm compound 3): 8.00 ppm
- In vitro MIC of colistin sulfate in the presence of compound 3 ([12]; 20 ppm compound 3): 2.00 ppm
- In vitro MIC of colistin sulfate in the presence of compound 3 ([12]; 40 ppm compound 3): 1.00 ppm
- In vitro MIC of colistin sulfate in the presence of compound 3 ([12]; 80 ppm compound 3): 1.00 ppm
- In vitro MIC of the substance alone [12, 16]: >800 ppm
- Average daily weight gain [13, 24]: 44.6 g
- Feed conversion ratio [13, 24]: 1.855
- Survival rate [13, 24]: 100%
- Average daily weight gain ([13]; 100 ppm compound 3 in feed): 40.2 g
- Feed conversion ratio ([13]; 100 ppm compound 3 in feed): 1.943
- Survival rate ([13]; 100 ppm compound 3 in feed): 100%
- Synergy with colistin sulfate in weight gain and feed efficiency ([13]; chicken): Synergy
